Data taken from the NIST ThermoML archive (doi:10.1021/je900697w).

Experiments:
[1] = for surface tension liquid-gas: Ring tensiometer; for mass density: 101.33 kPa, Liquid
[2] = xn = mol fraction of the nth substance listed; details: for surface tension liquid-gas: Ring tensiometer; for mass density: 101 kPa, Liquid, Vibrating tube method
[3] = 101 kPa, Liquid mixture 1, Ring tensiometer

CCCCCC[n+]1ccn(C)c1.O=S(=O)([N-]S(=O)(=O)C(F)(F)F)C(F)(F)F
[1]
Details | mass density [kg/m3] | surface tension liquid-gas [mN/m]
283.1 K | 1385.4 | 31.2
298.15 K | 1370.7 | 30.8
323.15 K | 1348 | 28.9
348.15 K | 1324 | 27.6

CCCCCC[n+]1ccn(C)c1.O=S(=O)([N-]S(=O)(=O)C(F)(F)F)C(F)(F)F + C=CCCCCCC
[2], x2 = 0
Details | mass density [kg/m3] | surface tension liquid-gas [mN/m]
283.1 K | 1385.4 | 31.2
298.15 K | 1370.7 | 30.8
323.15 K | 1348 | 28.9
348.15 K | 1324 | 27.6

C=CCCCCCC [oct-1-ene]
[1]
Details | surface tension liquid-gas [mN/m]
283.1 K | 22.5
298.15 K | 21.2
323.15 K | 18.5
348.15 K | 15.7

[1], Vibrating tube method
Details | mass density [kg/m3]
283.1 K | 723.5
298.15 K | 711.2
323.15 K | 690
348.15 K | 668

C=CCCCCCC [oct-1-ene] + CCCCCC[n+]1ccn(C)c1.O=S(=O)([N-]S(=O)(=O)C(F)(F)F)C(F)(F)F
[2]
Details | mass density [kg/m3] | surface tension liquid-gas [mN/m]
283.1 K, x1 = 0.05 | 1372.1 | 30.9
283.1 K, x1 = 0.1 | 1356 | 29.8
283.1 K, x1 = 0.139 | 1340 | –
283.1 K, x1 = 0.15 | – | 27.8
283.1 K, x1 = 0.154 | 1340 | –
283.1 K, x1 = 0.16 | – | 27.7
283.1 K, x1 = 1 | – | 22.5
298.15 K, x1 = 0.05 | 1358 | 30.3
298.15 K, x1 = 0.1 | 1342 | 29.4
298.15 K, x1 = 0.139 | 1328 | –
298.15 K, x1 = 0.15 | – | 27.4
298.15 K, x1 = 0.154 | 1326 | –
298.15 K, x1 = 0.19 | – | 27
298.15 K, x1 = 1 | – | 21.2
323.15 K, x1 = 0.05 | 1336 | 28.8
323.15 K, x1 = 0.1 | 1319 | 28.7
323.15 K, x1 = 0.139 | 1306 | –
323.15 K, x1 = 0.15 | – | 26.6
323.15 K, x1 = 0.154 | 1303 | –
323.15 K, x1 = 0.23 | – | 25.5
323.15 K, x1 = 1 | – | 18.5
348.15 K, x1 = 0.05 | 1313 | 27.4
348.15 K, x1 = 0.1 | 1300 | 27.2
348.15 K, x1 = 0.139 | 1282 | –
348.15 K, x1 = 0.15 | – | 26.3
348.15 K, x1 = 0.154 | 1279 | –
348.15 K, x1 = 0.28 | – | 25.3
348.15 K, x1 = 1 | – | 15.7

[3]
Details | interfacial tension [mN/m]
283.1 K | 13.3
298.15 K | 13
323.15 K | 9.7
348.15 K | 4.4
